This is an account of results in PMC5566576, “Identification and Functional Characterization of Small Alarmone Synthetases in Corynebacterium glutamicum” (Frontiers in Microbiology, 2017).

Series [1] addresses T1, RelP*Cg (Corynebacterium glutamicum, UniProt Q8NR76).
T1 construct: gene Cgl1177
The experiment in a line: kinase activity, HPLC-MS product detection (ADP and GTP). To be noted: 4 mM ATP, 4 mM GDP, 50 mM Tris-HCl pH 8.0, 5 mM MgCl2, 30°C, 4 h; no pyrophosphokinase activity. In kind it is biochemical.

Series [2] addresses T2, RelCg (Corynebacterium glutamicum, UniProt O87331).
T2 construct: gene relA
T2 sequence (O87331 1-760): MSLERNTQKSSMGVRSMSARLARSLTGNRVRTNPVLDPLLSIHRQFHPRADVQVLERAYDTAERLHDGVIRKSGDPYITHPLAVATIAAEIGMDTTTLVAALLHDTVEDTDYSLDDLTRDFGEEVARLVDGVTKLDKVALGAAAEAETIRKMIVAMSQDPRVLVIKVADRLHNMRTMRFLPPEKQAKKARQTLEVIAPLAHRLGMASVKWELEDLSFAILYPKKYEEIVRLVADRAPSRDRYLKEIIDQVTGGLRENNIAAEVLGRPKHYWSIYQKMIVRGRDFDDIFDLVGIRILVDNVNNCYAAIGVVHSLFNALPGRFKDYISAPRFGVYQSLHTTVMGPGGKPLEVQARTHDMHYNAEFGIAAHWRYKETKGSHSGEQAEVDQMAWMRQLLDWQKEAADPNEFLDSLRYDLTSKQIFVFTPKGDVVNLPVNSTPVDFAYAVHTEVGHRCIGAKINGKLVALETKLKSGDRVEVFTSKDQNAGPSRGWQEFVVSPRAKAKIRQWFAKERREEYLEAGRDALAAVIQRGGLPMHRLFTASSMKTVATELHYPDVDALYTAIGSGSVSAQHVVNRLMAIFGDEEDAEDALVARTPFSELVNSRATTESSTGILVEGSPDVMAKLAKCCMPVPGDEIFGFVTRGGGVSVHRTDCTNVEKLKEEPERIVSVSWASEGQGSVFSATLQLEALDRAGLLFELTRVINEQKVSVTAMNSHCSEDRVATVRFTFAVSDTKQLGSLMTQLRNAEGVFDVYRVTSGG
The series is described as follows: pyrophosphokinase assay, HPLC-MS product detection (ppGpp). It is filed as biochemical. As to conditions: 4 mM ATP, 4 mM GDP, 50 mM Tris-HCl pH 8.0, 5 mM MgCl2, 30°C, 4 h; GDP also phosphorylated to GTP.

Series [3] has as its target T2, RelCg. The series is described as follows: pyrophosphokinase assay, HPLC-MS product detection (pppGpp). To be noted: 4 mM ATP, 4 mM GTP, 50 mM Tris-HCl pH 8.0, 5 mM MgCl2, 30°C, 4 h. It is filed as biochemical.
The target in series [4] is T1, RelP*Cg. The experiment in a line: phosphohydrolase activity, HPLC-MS product detection (ADP and GDP). To be noted: 4 mM ATP, 4 mM GTP, 50 mM Tris-HCl pH 8.0, 5 mM MgCl2, 30°C, 4 h; no alarmone formed. It is filed as biochemical.
Substrate in series [5]: Nc1nc2c(ncn2[C@@H]2O[C@H](COP(=O)(O)OP(=O)(O)OP(=O)(O)O)[C@@H](O)[C@H]2O)c(=O)[nH]1
The experiment in a line: pyrophosphokinase assay, HPLC-MS quantification of AMP, polynomial fit. In kind it is biochemical, Corynebacterium glutamicum. As to conditions: 25 mM ATP, 50 mM HEPES-Na pH 7.0, 200 mM NaCl, 5 mM MgCl2, 30°C, 60 min, 250 nM enzyme, substrate excess inhibition at 25-50 mM.

Substrate in series [6]: Nc1nc2c(ncn2[C@@H]2O[C@H](COP(=O)(O)OP(=O)(O)O)[C@@H](O)[C@H]2O)c(=O)[nH]1
The series is described as above. In kind it is biochemical, Corynebacterium glutamicum. To be noted: 25 mM ATP, 50 mM HEPES-Na pH 7.0, 200 mM NaCl, 5 mM MgCl2, 30°C, 60 min, 250 nM enzyme, substrate excess inhibition at 25-50 mM.

Substrate in series [7]: Nc1ncnc2c1ncn2[C@@H]1O[C@H](COP(=O)(O)OP(=O)(O)OP(=O)(O)O)[C@@H](O)[C@H]1O
The series is described as follows: pyrophosphokinase assay, HPLC-MS quantification of AMP; half-maximal specific activity. It is filed as biochemical, Corynebacterium glutamicum. To be noted: 25 mM GTP, 50 mM HEPES-Na pH 7.0, 200 mM NaCl, 5 mM MgCl2, 30°C, 60 min, 250 nM enzyme.

T1 sequence (Q8NR76 entry or part of it): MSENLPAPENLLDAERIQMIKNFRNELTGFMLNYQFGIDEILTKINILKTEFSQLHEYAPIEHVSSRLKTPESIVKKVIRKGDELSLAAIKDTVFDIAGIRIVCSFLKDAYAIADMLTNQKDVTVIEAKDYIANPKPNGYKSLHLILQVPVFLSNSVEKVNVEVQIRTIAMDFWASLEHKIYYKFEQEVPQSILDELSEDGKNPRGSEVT

For the molecule `Nc1nc2c(ncn2[C@@H]2O[C@H](COP(=O)(O)OP(=O)(O)O)[C@@H](O)[C@H]2O)c(=O)[nH]1` [GDP], the “kinase activity, HPLC-MS product detection (ADP and GTP)” value at RelP*Cg [1] is “RelP^*Cg possesses a kinase activity, since ADP and GTP were produced”. The “pyrophosphokinase assay, HPLC-MS product detection (ppGpp)” value at RelCg [2] was “pyrophosphorylation of GDP and GTP to ppGpp and pppGpp was detected”.
For the molecule `Nc1nc2c(ncn2[C@@H]2O[C@H](COP(=O)(O)OP(=O)(O)OP(=O)(O)O)[C@@H](O)[C@H]2O)c(=O)[nH]1` [GTP], the “pyrophosphokinase assay, HPLC-MS product detection (pppGpp)” value at RelCg [3] is “pyrophosphorylation of GDP and GTP to ppGpp and pppGpp was detected”. At RelP*Cg [4], the “phosphohydrolase activity, HPLC-MS product detection (ADP and GDP)” value was “containing RelP^*Cg as well as ATP and GTP as substrates, significant amounts of ADP and GDP”.

B1: RelSCg (Corynebacterium glutamicum ATCC 13032) (protein)
chain: MSDNTLSQFGSYYHEFRRAHPMADVEFLLAIEELLTDGGVTFDRVTTRIKEWSSLKAKARKRRNDGSLIYPDPRKDIHDMIGVRITTYHSTEIPVALKVLQDSFIVHKSVDKAAETRISGGFGYGSHHLILEVDDTSDDLQDYKGLVFEVQVRTVLQHAWAEFEHDIRYKRADVSNPEDFSAEVDRMFTLAAGLIELADQQFDQIAALKETSRVADESVELTAETLPGVLAMLIGNRFPRPRSTNYRFLEDILVANSITSVVQLRELLNPTDIEVLLKVMNYRFHPGQIRIIDDLLLKRFGQSHIDATVATDSQPLNAKRHRQLKRKLELMTQAHLVEPPN
Take B1: the Km in series [5] is 4.1 mM; in series [6], 6.1 mM. For the same molecule, in series [7], the K0.5 came to 0.8 mM.
